Experimental data published in EPA's ToxRefDB 2.

Tests used:
rat [1] = settings: Subchronic oral toxicity in rodents, fischer, Feed, dose end: 13 week, group: systemic
rat [2] = settings: Multigenerational reproductive toxicity study, sprague dawley, Oral, Feed, dose end: 2 generation
rat [3] = settings: Multigenerational reproductive toxicity study, sprague dawley, Oral, Feed, dose end: 2 generation; remark: listed apart in the source
rat [4] = settings: Combined chronic toxicity/carcinogenicity, fischer, Oral, Feed, dose end: 24 month, group: systemic
rat [5] = settings: Subchronic oral toxicity in rodents, wistar, Feed, dose end: 90 day, group: systemic
mouse [6] = settings: Carcinogenicity; cd1; Oral; Feed; dose end: 18 month; group: systemic; systemic / pathology gross / kidney / reduced size + systemic / pathology microscopic / kidney / inflammation + systemic / pathology …
mouse [7] = settings: Sub-acute repeat dose toxicity, cd1, Oral, Feed, dose end: 4 week, group: systemic
dog [8] = settings: Chronic toxicity, beagle, Oral, Feed, dose end: 52 week, group: systemic
rat [9] = settings: Combined chronic toxicity/carcinogenicity, sprague dawley, Oral, Feed, dose end: 24 month, group: systemic
rat [10] = settings: Multigenerational reproductive toxicity study, other, Oral, Feed, dose end: 2 generation
dog [11] = settings: Subchronic oral toxicity in nonrodent, beagle, Feed, dose end: 13 week, group: systemic
mouse [12] = settings: Carcinogenicity, other, Oral, Feed, dose end: 18 month, group: systemic
rat [13] = settings: Prenatal developmental toxicity study, other, Oral, Gavage/Intubation, dose end: 15 GD
rat [14] = settings: Subchronic oral toxicity in rodents, other, Feed, dose end: 3 month, group: systemic, systemic / clinical chemistry / alkaline phosphatase (alp/alk) / alkaline phosphatase (alp/alk) + systemic / in life observation / body …
rabbit = settings: Prenatal developmental toxicity study, other, Oral, Gavage/Intubation, dose end: 19 GD
[15] = group: parental, systemic / organ weight / kidney / absolute + systemic / organ weight / kidney / relative to body weight
[16] = group: reproductive, reproductive / offspring survival early / dead fetuses / dead fetuses + reproductive / offspring survival early / litter size / litter size
[17] = group: offspring, developmental / offspring survival late / viability index / viability index
[18] = group: offspring, developmental / offspring survival late / viability index / viability index + systemic / in life observation / body weight / offspring (pup…
[19] = group: parental, systemic / organ weight / kidney / relative to body weight
[20] = group: parental, systemic / organ weight / kidney / relative to body weight + systemic / organ weight / kidney / absolute + systemic / pathology gross / …
[21] = systemic / in life observation / clinical signs / perineal soiling + systemic / organ weight / adrenal gland / relative to body weight + …
[22] = systemic / pathology microscopic / kidney / inflammation + systemic / in life observation / mortality / mortality + systemic / pathology …
[23] = systemic / pathology microscopic / kidney / degeneration
[24] = systemic / pathology microscopic / kidney / degeneration + systemic / in life observation / body weight / body weight gain + systemic / in …
[25] = systemic / hematology / anemia / anemia - nos + systemic / clinical chemistry / cholesterol / cholesterol + systemic / clinical chemistry / …
[26] = systemic / pathology microscopic / liver / hypertrophy
[27] = systemic / pathology microscopic / liver / hypertrophy + systemic / clinical chemistry / albumin / albumin + systemic / clinical chemistry…
[28] = group: offspring, developmental / developmental landmark / eye opening / eye opening + systemic / in life observation / body weight / offspring (pup) weight
[29] = group: parental, systemic / organ weight / liver / relative to body weight
[30] = systemic / clinical chemistry / alkaline phosphatase (alp/alk) / alkaline phosphatase (alp/alk) + systemic / organ weight / liver / absolute…
[31] = systemic / organ weight / liver / relative to body weight
[32] = systemic / in life observation / body weight / body weight + systemic / organ weight / spleen / relative to body weight
[33] = group: developmental, developmental / developmental malformation / bone / incomplete ossification
[34] = group: developmental, developmental / developmental malformation / bone / incomplete ossification + developmental / developmental malformation / bone / dumbbell …
[35] = group: maternal, systemic / in life observation / body weight / body weight gain + systemic / in life observation / food consumption / food consumption
[36] = group: developmental, developmental / developmental malformation / bone / full supernumerary
[37] = group: developmental, developmental / developmental malformation / bone / full supernumerary + developmental / developmental malformation / bone / extra …
[38] = group: maternal, systemic / in life observation / body weight / body weight gain + systemic / in life observation / food consumption / food consumption + …

SMILES: Nc1c(Cl)c(F)nc(OCC(=O)O)c1Cl [Fluroxypyr]
- LEL (rat [1]; systemic / hematology / hemoglobin (hgb) / hemoglobin (hgb) + systemic / urinalysis / specific gravity/osmolality / specific gravity/…): 700 mg/kg/day
- NEL (rat [1]; systemic / in life observation / body weight / body weight gain + systemic / organ weight / testes / absolute + systemic / hematology / …): 320 mg/kg/day
- NOAEL (rat [1]; systemic / organ weight / brain / absolute + systemic / hematology / erythrocyte (rbc) count differential / erythrocyte (rbc) + systemic / …): 700 mg/kg/day
- LOAEL (rat [1]; systemic / organ weight / brain / absolute + systemic / in life observation / body weight / body weight gain + systemic / organ weight / …): 1000 mg/kg/day
- LEL (rat [2]; group: offspring, developmental / developmental malformation / general / runts): 500 mg/kg/day
- NEL (rat [2]; group: offspring, developmental / developmental malformation / general / runts + developmental / developmental malformation / eye / anophthalmia + …): 100 mg/kg/day
- NOAEL (rat [2]; group: offspring, developmental / developmental malformation / general / runts + systemic / in life observation / body weight / offspring (pup) weight gain + …): 500 mg/kg/day
- LOAEL (rat [2]; group: offspring, systemic / in life observation / body weight / offspring (pup) weight gain + systemic / in life observation / body weight / offspring (pup) …): 750 mg/kg/day
- NOAEL (rat [2]; group: parental, systemic / organ weight / kidney / absolute + systemic / in life observation / body weight / body weight + systemic / in life observation / …): 100 mg/kg/day
- LEL (rat [2]; [15]): 100 mg/kg/day
- NEL (rat [2]; [15]): < 100 mg/kg/day
- LOAEL (rat [2]; group: parental, systemic / organ weight / kidney / absolute + systemic / organ weight / kidney / relative to body weight + systemic / pathology microscopic…): 500 mg/kg/day
- LEL (rat [2]; [16]): 750 mg/kg/day
- LOAEL (rat [2]; [16]): 750 mg/kg/day
- NEL (rat [2]; [16]): 500 mg/kg/day
- NOAEL (rat [2]; [16]): 500 mg/kg/day
- LEL (rat [3]; [17]): 500 mg/kg/day
- LOAEL (rat [3]; [17]): 500 mg/kg/day
- NEL (rat [3]; [18]): 100 mg/kg/day
- NOAEL (rat [3]; [18]): 100 mg/kg/day
- LEL (rat [3]; [19]): 100 mg/kg/day
- NEL (rat [3]; [19]): < 100 mg/kg/day
- LOAEL (rat [3]; [20]): 500 mg/kg/day
- NOAEL (rat [3]; [20]): 100 mg/kg/day
- LEL (rat [4]; [21]): 100 mg/kg/day
- NEL (rat [4]; [21]): < 100 mg/kg/day
- NOAEL (rat [4]; [21]): 100 mg/kg/day
- LOAEL (rat [4]; systemic / organ weight / kidney / relative to body weight + systemic / pathology microscopic / kidney / nephropathy + systemic / organ …): 500 mg/kg/day
- LEL (rat [5]; [22]): 750 mg/kg/day
- LOAEL (rat [5]; [22]): 750 mg/kg/day
- NEL (rat [5]; systemic / urinalysis / ph / ph + systemic / clinical chemistry / alanine aminotransferase (alt/sgpt) / alanine aminotransferase (alt/sgpt…): 80 mg/kg/day
- LEL (mouse [6]): 1000 mg/kg/day
- LOAEL (mouse [6]): 1000 mg/kg/day
- NEL (mouse [6]): 300 mg/kg/day
- NOAEL (mouse [6]): 300 mg/kg/day
- LEL (mouse [7]; [23]): 132 mg/kg/day
- LOAEL (mouse [7]; [23]): 132 mg/kg/day
- NEL (mouse [7]; [24]): 14 mg/kg/day
- NOAEL (mouse [7]; [24]): 14 mg/kg/day

SMILES: CC1=NNC(=O)N(/N=C/c2cccnc2)C1 [Pymetrozine]
- LEL (dog [8]; systemic / clinical chemistry / cholesterol / cholesterol + systemic / organ weight / liver / absolute + systemic / organ weight / liver / …): 5.33 mg/kg/day
- NEL (dog [8]; [25]): 0.57 mg/kg/day
- NOAEL (dog [8]; [25]): 5.33 mg/kg/day
- LOAEL (dog [8]; systemic / hematology / anemia / anemia - nos + systemic / pathology microscopic / intestine large / [other] + systemic / pathology …): 27.8 mg/kg/day
- LEL (rat [9]; [26]): 3.76 mg/kg/day
- LOAEL (rat [9]; [26]): 3.76 mg/kg/day
- NEL (rat [9]; [27]): 0.377 mg/kg/day
- NOAEL (rat [9]; [27]): 0.377 mg/kg/day
- LEL (rat [10]; [28]): 100 mg/kg/day
- LOAEL (rat [10]; [28]): 100 mg/kg/day
- NEL (rat [10]; [28]): 10 mg/kg/day
- NOAEL (rat [10]; [28]): 10 mg/kg/day
- LEL (rat [10]; [29]): 1.7 mg/kg/day
- NEL (rat [10]; [29]): < 1.7 mg/kg/day
- LOAEL (rat [10]; group: parental, systemic / pathology microscopic / liver / hypertrophy): 13.9 mg/kg/day
- NOAEL (rat [10]; group: parental, systemic / pathology microscopic / liver / hypertrophy + systemic / in life observation / body weight / body weight + systemic / in life …): 1.4 mg/kg/day
- LOAEL (dog [11]; [30]): 14 mg/kg/day
- NOAEL (dog [11]; [30]): 3.12 mg/kg/day
- LEL (dog [11]; [31]): 3.12 mg/kg/day
- NEL (dog [11]; [31]): < 3.12 mg/kg/day
- NOAEL (mouse [12]; systemic / in life observation / body weight / body weight + systemic / organ weight / liver / relative to body weight + systemic / …): 12 mg/kg/day
- LEL (mouse [12]; [32]): 1.2 mg/kg/day
- NEL (mouse [12]; [32]): < 1.2 mg/kg/day
- LOAEL (mouse [12]; systemic / organ weight / liver / relative to body weight + systemic / pathology microscopic / liver / hypertrophy + systemic / pathology …): 250 mg/kg/day
- LEL (rat [13]; [33]): 30 mg/kg/day
- NEL (rat [13]; [33]): < 30 mg/kg/day
- LOAEL (rat [13]; [34]): 300 mg/kg/day
- NOAEL (rat [13]; [34]): 100 mg/kg/day
- LEL (rat [13]; [35]): 100 mg/kg/day
- LOAEL (rat [13]; [35]): 100 mg/kg/day
- NEL (rat [13]; [35]): 30 mg/kg/day
- NOAEL (rat [13]; [35]): 30 mg/kg/day
- LEL (rat [14]): 360 mg/kg/day
- LOAEL (rat [14]): 360 mg/kg/day
- NOAEL (rat [14]): 32.5 mg/kg/day
- LEL (rabbit; [36]): 75 mg/kg/day
- LOAEL (rabbit; [36]): 75 mg/kg/day
- NEL (rabbit; [37]): 10 mg/kg/day
- NOAEL (rabbit; [37]): 10 mg/kg/day
- LEL (rabbit; [38]): 75 mg/kg/day
- LOAEL (rabbit; [38]): 75 mg/kg/day
- NEL (rabbit; [38]): 10 mg/kg/day
- NOAEL (rabbit; [38]): 10 mg/kg/day
